Measurements: US10844049B2, “GLP-1R agonists and uses thereof” (QILU REGOR THERAPEUTICS INC., priority 2018, dated 2020)

Target: GLP1R (Homo sapiens, UniProt P43220)
Assay: GLP1R cAMP HTRF assay, HEK293/GLP-1R/CRE/Luc (HEK293T cells)
Type: cell-based
Conditions: read-out: EC50
In short: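 cAMP accumulation via HTRF after 30 min, 37 °C exposure of 1000 receptor-expressing cells/well to compound (0.5% DMSO final) in IBMX (500 μM)/0.1% BSA DPBS.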

Chain of GLP1R (P43220 24-463): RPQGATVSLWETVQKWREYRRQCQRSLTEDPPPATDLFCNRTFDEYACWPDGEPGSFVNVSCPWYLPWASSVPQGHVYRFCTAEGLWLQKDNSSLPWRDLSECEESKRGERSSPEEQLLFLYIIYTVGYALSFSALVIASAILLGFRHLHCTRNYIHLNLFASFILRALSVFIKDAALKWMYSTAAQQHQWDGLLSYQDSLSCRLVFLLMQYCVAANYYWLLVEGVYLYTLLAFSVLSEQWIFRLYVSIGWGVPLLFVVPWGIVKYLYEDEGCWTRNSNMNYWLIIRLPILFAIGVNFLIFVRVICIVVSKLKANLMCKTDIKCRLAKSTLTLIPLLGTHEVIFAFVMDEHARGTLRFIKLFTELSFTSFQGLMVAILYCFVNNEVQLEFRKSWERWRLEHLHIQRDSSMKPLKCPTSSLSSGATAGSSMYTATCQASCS

SMILES	EC50 [nM]
O=C(O)c1ccc2nc(CN3CC=C(c4ccc5ccn(Cc6ccc(Cl)cc6F)c5c4)CC3)n(C[C@@H]3CCO3)c2c1 [Compound 27, (S)-2-((4-(1-(4-chloro-2-fluorobenzyl)-1 h-indol-6-yl)-5,6-dihydropyridin-1(2H)-yl)methyl)-1-(oxetan-2-ylmethyl)-1 h-benzo[d]imidazole-6-carboxylic add]	> 1000
O=C(O)c1ccc2nc(CN3CC=C(c4cccc(OC5CCOc6cc(Cl)ccc65)n4)CC3)n(C[C@@H]3CCO3)c2c1 (stereo partly drawn) [Compound 69, 2-((6-((7-chlorochroman-4-yl)oxy)-5′,6′-dihydro-[2,4′-bipyridin]-1′(2′H)-yl)methyl)-1-((S)-oxetan-2-ylmethyl)-1H-benzo[d]imidazole-6-carboxylic add]	≤ 1000
O=C(O)c1ccc2nc(CN3CCN(c4cc5ccccc5c(OCc5ccc(Cl)cc5F)n4)CC3)n(C[C@@H]3CCO3)c2c1 [Compound 36, (S)-2-((4-(1-((4-chloro-2-fluorobenzyl)oxy)isoquinolin-3-yl)piperazin-1-yl)methyl)-1-(oxetan-2-ylmethyl)-1 h-benzo[d]imidazole-6-carboxylic acid]	≤ 1000
O=C(O)c1ccc2nc(CN3CC=C(c4nc(NCc5ccc(Cl)cc5F)c(F)cc4F)CC3)n(C[C@@H]3CCO3)c2c1 [Compound 133, (S)-2-((4-(6-(4-chloro-2-fluorobenzylamino)-3,5-difluoropyridin-2-yl)-5,6-dihydropyridin-1(2H)-yl)methyl)-1-(oxetan-2-ylmethyl)-1H-benzo[d]imidazole-6-carboxylic acid]	≤ 15
N#Cc1ccc2nc(CN3CC=C(c4cccc(OCc5ccc(Cl)cc5F)n4)CC3)n(C[C@@H]3CCO3)c2c1 [Compound 71, (S)-2-((4-(6-(4-chloro-2-fluorobenzyloxy)pyridin-2-yl)-5,6-dihydropyridin-1(2H)-yl)methyl)-1-(oxetan-2-ylmethyl)-1H-benzo[d]imidazole-6-carbonitrile]	> 1000
O=C(O)c1ccc2nc(CN3CCN(c4ccc5ccn(Cc6ccc(Cl)cc6F)c5c4)CC3)n(C[C@@H]3CCO3)c2c1 [Compound 14, (S)-2-((4-(1-(4-chloro-2-fluorobenzyl)-th-indol-6-yl)piperazin-1-yl)methyl)-1-(oxetan-2-ylmethyl)-1 h-benzo[d]imidazole-6-carboxylic acid]	> 1000
O=C(O)c1ccc2nc(CN3CC=C(c4ccnc(OCc5ccc(Cl)cc5F)c4)CC3)n(C[C@@H]3CCO3)c2c1 [Compound 31, (S)-2-((2′-((4-chloro-2-fluorobenzyl)oxy)-3,6-dihydro-[4,4′-bipyridin]-1(2H)-yl)methyl)-1-(oxetan-2-ylmethyl)-1H-benzo[d]imidazole-6-carboxylic add]	≤ 1000
O=C(O)c1ccc2nc(CN3CC=C(c4cccc(OCc5ccccc5C(F)(F)F)n4)CC3)n(C[C@@H]3CCO3)c2c1 [Compound 135, (S)-1-(oxetan-2-ylmethyl)-2-((6-((2-(trifluoromethyl)benzyl)oxy)-3′,6′-dihydro-[2,4′-bipyridin]-1′(2′H)-yl)methyl)-1H-benzo[d]imidazole-6-carboxylic acid]	≤ 150
O=C(O)c1ccc2nc(CN3CC=C(c4ccnc(NCc5ccc(Cl)cc5F)c4)CC3)n(C[C@@H]3CCO3)c2c1 [Compound 130, (S)-2-((2′-((4-chloro-2-fluorobenzyl)amino)-3,6-dihydro-[4,4′-bipyridin]-1(2H)-yl)methyl)-1-(oxetan-2-ylmethyl)-1H-benzo[d]imidazole-6-carboxylic add]	≤ 1000
O=C(O)c1ccc2nc(CN3CCN(c4cccc(OCc5ccc(Cl)cc5F)n4)C(=O)C3)n(C[C@@H]3CCO3)c2c1 [Compound 55, (S)-2-((4-(6-((4-chloro-2-fluorobenzyl)oxy)pyridin-2-yl)-3-oxopiperazin-1-yl)methyl)-1-(oxetan-2-ylmethyl)-1H-benzo[d]imidazole-6-carboxylic acid]	≤ 15
CN(Cc1ccc(Cl)cc1F)c1cccc(N2CCN(Cc3nc4ccc(C(=O)O)cc4n3C[C@@H]3CCO3)CC2)n1 [Compound 2, (S)-2-((4-(6-((4-chloro-2-fluorobenzyl)(methyl)amino)pyridin-2-yl)piperazin-1-yl)methyl)-1-(oxetan-2-ylmethyl)-1 h-benzo[d]imidazole-6-carboxylic acid]	> 1000
O=C(O)c1ccc2nc(CN3CC4CCC3CN4c3cccc(OCc4ccc(Cl)cc4F)n3)n(C[C@@H]3CCO3)c2c1 (stereo partly drawn) [Compound 17, 2-((5-(6-((4-chloro-2-fluorobenzyl)oxy)pyridin-2-yl)-2,5-diazabicyclo[2.2.2]octan-2-yl)methyl)-1-(((S)-oxetan-2-yl)methyl)-1 h-benzo[d]imidazole-6-carboxylic acid]	> 1000

Other lines, results leading:

EC50 [nM]	SMILES
≤ 15	O=C(O)c1ccc2nc(CN3CC=C(c4cccc(OCc5ccc(Cl)cc5F)n4)CC3)n(C[C@@H]3CCO3)c2c1F [Compound 171, (S)-2-((6-((4-chloro-2-fluorobenzyl)oxy)-3′,6′-dihydro-[2,4′-bipyridin]-1′(2′H)-yl)methyl)-7-fluoro-1-(oxetan-2-ylmethyl)-1H-benzo[d]imidazole-6-carboxylic acid]
≤ 150	O=C(O)c1ccc2nc(CN3CC=C(c4cccc(OCc5ccc(C#CC6CC6)cc5F)c4)CC3)n(C[C@@H]3CCO3)c2c1 [Compound 199, (S)-2-((4-(3-((4-(cyclopropylethynyl)-2-fluorobenzyl)oxy)phenyl)-3,6-dihydropyridin-1(2H)-yl)methyl)-1-(oxetan-2-ylmethyl)-1H-benzo[d]imidazole-6-carboxylicacid]
≤ 15	O=C(O)c1ccc2nc(CN3CC=C(c4cccc(OCc5ccc6c(c5)OCCO6)n4)CC3)n(C[C@@H]3CCO3)c2c1 [Compound 151, (S)-2-((6-((2,3-dihydrobenzo[b][1,4]dioxin-6-yl)methoxy)-3′,6′-dihydro-[2,4′-bipyridin]-1′(2′H)-yl)methyl)-1-(oxetan-2-ylmethyl)-1H-benzo[d]imidazole-6-carboxylic add]
≤ 150	O=C(O)c1ccc2nc(CC3CCN(c4cccc(OCc5ccc(Cl)cn5)n4)CC3)n(C[C@@H]3CCO3)c2n1 [Compound 230, (S)-2-((l-(6-((5-chloropyridin-2-yl)methoxy)pyridin-2-yl)piperidin-4-yl)methyl)-3-(oxetan-2-ylmethyl)-3H-imidazo[4,5-b]pyridine-5-carboxylic acid]
≤ 150	O=C(O)c1ccc2nc(CN3CCN(c4cc(OCc5ccc(Cl)cc5F)c(F)cc4F)CC3)n(C[C@@H]3CCO3)c2c1 [Compound 188]
≤ 15	O=C(O)c1ccc2nc(CN3CC=C(c4cccc(OCc5ccc6c(c5)OCO6)n4)CC3)n(C[C@@H]3CCO3)c2c1 [Compound 152]
≤ 1000	CC(C)(C)c1ccc(COc2cccc(C3=CCN(Cc4nc5ccc(C(=O)O)cc5n4C[C@@H]4CCO4)CC3)n2)cc1 [Compound 147, (S)-2-((6-((4-(tert-butyl)benzyl)oxy)-5′,6′-dihydro-[2,4′-bipyridin]-1′(2H)-yl)methyl)-1-(oxetan-2-ylmethyl)-1H-benzo[d]imidazole-6-carboxylic add]
≤ 150	O=C(O)c1ccc2nc(CN3CC=C(c4nccc(OCc5ccc(F)cc5F)n4)CC3)n(C[C@@H]3CCO3)c2c1 [Compound 214, (S)-2-((4-(4-((2,4-difluorobenzyl)oxy)pyrimidin-2-yl)-3,6-dihydropyridin-1(2H)-yl)methyl)-1-(oxetan-2-ylmethyl)-1H-benzo[d]imidazole-6-carboxylic add]
≤ 15	O=C(O)c1ccc2nc(CN3CC=C(c4cccc(OCc5ccc(F)c(F)c5)n4)CC3)n(C[C@@H]3CCO3)c2c1 [Compound 145, (S)-2-((6((3,4-difluorobenzyl)oxy)-3′,6′-dihydro-[2,4′-bipyridin]-1′(2′H)-yl)methyl)-1-(oxetan-2-ylmethyl)-1H-benzo[d]imidazole-6-carboxylic acid]
≤ 15	N#Cc1ccc(COc2ncc(F)c(C3=CCN(Cc4nc5ccc(C(=O)O)cc5n4C[C@@H]4CCO4)CC3)n2)c(F)c1 [Compound 210, (S)-2-((4-(2-(4-cyano-2-fluorobenzyloxy)-5-fluoropyrimidin-4-yl)-5,6-dihydropyridin-1(2H)-yl)methyl)-1-(oxetan-2-ylmethyl)-1H-benzo[d]imidazole-6-carboxylic add]
≤ 150	CCn1cnc(Cn2c(CN3CC=C(c4cccc(OCc5ccc(C#N)cc5F)n4)CC3)nc3ccc(C(=O)O)cc32)c1 [Compound 183, 2-((6-((4-cyano-2-fluorobenzyl)oxy)-3′,6′-dihydro-[2H′-bipyridin]-1′(2′H)-yl)methyl)-1-((1-ethyl-1H-imidazol-4-yl)methyl)-1H-benzo[d]imidazole-6-carboxylic acid]
≤ 15	N#Cc1ccc(COc2ccnc(C3=CCN(Cc4nc5ccc(C(=O)O)cc5n4C[C@@H]4CCO4)CC3)n2)c(F)c1 [Compound 176, (S)-2-((4-(4-((4-cyano-2-fluorobenzyl)oxy)pyrimidin-2-yl)-3,6-dihydropyridin-1(2H)-yl)methyl)-1-(oxetan-2-ylmethyl)-1H-benzo[d]imidazole-6-carboxylic add]
≤ 150	O=C(O)c1ccc2nc(CN3CC=C(c4cc(F)c(F)c(OCc5ccc(C#CC6CC6)cc5F)c4)CC3)n(C[C@@H]3CCO3)c2c1 [Compound 203, (S)-2-((4-(3-(4-(cyclopropylethynyl)-2-fluorobenzyloxy)-4,5-difluorophenyl)-5,6-dihydropyridin-1(2H)-yl)methyl)-1-(oxetan-2-ylmethyl)-1H-benzo[d]imidazole-6-carboxylic acid]
≤ 150	O=C(O)c1ccc2nc(CN3CC=C(c4ccc(F)c(OCc5ccc(C#CC6CC6)cc5F)c4)CC3)n(C[C@@H]3CCO3)c2c1 [Compound 202, (S)-2-((4-(3-((4-(cyclopropylethynyl)-2-fluorobenzyl)oxy)-4-fluorophenyl)-3,6-dihydropyridin-1(2H)-yl)methyl)-1-(oxetan-2-ylmethyl)-1H-benzo[d]imidazole-6-carboxylic acid]
≤ 15	O=C(O)c1ccc2nc(CN3CC=C(c4cccc(OCc5ccc6c(c5)OC(F)(F)O6)n4)CC3)n(C[C@@H]3CCO3)c2c1 [Compound 153, (S)-2-((6-((2,2-difluorobenzo[d][1,3]dioxol-5-yl)methoxy)-3′,6′-dihydro-[2,4′-bipyridin]-1′(2′H)-yl)methyl)-1-(oxetan-2-ylmethyl)-1H-benzo[d]imidazole-6-carboxylic acid]
